No end group written: not given here.
Legend:
[1] = test system: opiate receptor, guinea pig brain membranes; assay: Opiate agonist activity by receptor binding assay (method of Simon et al.); conditions: for Percentage of inhibition of stereospecific binding: mean ± standard error from 4 determinations
Description: The opiate agonist activity of natural beta-endophine was determined by the method of Simon et al., Proc. Nat. Acad. Sci. 70, 1947 (1973) using guinea pig brain membranes.

rabbit fat cells = assay: Lipolytic activity in rabbit fat cells (procedure of Li et al.); format: cell-based; conditions: triplicate, mean ± standard error
Text: The lypolytic activity of natural beta-endorphin was compared to the activity of ovine beta-lipotropin hormone in rabbit fat cells using the procedure of Li et al., Arch. Biochem. Biophys. 169, 669 (1975).

[2] = Hughes et al. Nature 258, 557 (1975); cited from earlier work

## Oc1ccc2c3c1O[C@H]1[C@@H](O)C=C[C@H]4[C@@H](C2)NCC[C@@]341 [Normophine, reference compound]
[1]; dose 0.7 (10-^7 M)
  Percentage of inhibition of stereospecific binding: 28 ± 0.8
[1]; dose 7.0 (10-^7 M)
  Percentage of inhibition of stereospecific binding: 70 ± 0.9

## YGGFMTSEKSQTPLVTLFKNAIIKNAHKKGQ [beta-endorphin]
[1]; dose 1.0 (10-^7 M)
  Percentage of inhibition of stereospecific binding: 60 ± 0.7
[1]; dose 10.0 (10-^7 M)
  Percentage of inhibition of stereospecific binding: 83 ± 0.2
[1]; molar basis
  Potency, times that for normophine on a molar basis: 3.42 times
Rabbit fat cells; dose 1.1 (unit not given)
  Lipolytic activity: glycerol production: 0.66 ± 0.28 Micromole of glycerol producti
Rabbit fat cells; dose 10.0 (unit not given)
  Lipolytic activity: glycerol production: 1.42 ± 0.37 Micromole of glycerol producti

## H-Tyr-Gly-Gly-Phe-Met-OH (H-YGGFM-OH) [pentapeptide isolated from pig brains by Hughes et al]
[2]
  Opiate agonist activity (in words): exhibits opiate agonist activity
